Drawing on PubChem BioAssay (NCI), this text covers TGI and GI50 for 15 compounds.

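Results reflect a 48-hour exposure of cells in 96-well plates to compound at five concentrations. Abbreviation: GI50, concentration required for 50% inhibition of growth. TGI: concentration producing complete growth inhibition.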 A value given as a limit tells only on which side of the number the result lay.

Test systems include SK-MEL-28 melanoma; IGROV1 ovarian; RPMI-8226 leukemia; A498 renal; HCT-116 colon; NCI-H522 lung; 786-0 renal; SNB-19 CNS; MDA-MB-231 breast.
Test in all cases: NCI anticancer screen, dose series, 48 h

As for `NC(CCSCCF)C(=O)O` (stereo not drawn), the TGI with SK-MEL-28 melanoma, in the assay on IGROV1 ovarian, in the assay with RPMI-8226 leukemia, with A498 renal, in the assay with HCT-116 colon and in the assay on NCI-H522 lung was above 100 µM each time. Further, the TGI in the assay on 786-0 renal and in the assay on SNB-19 CNS was above 100 µM throughout.

For the compound `COC(=O)c1ccc(N/C=C(/C#N)c2ccsc2)cc1`, the TGI was 45.6 µM in the assay with SK-MEL-28 melanoma; 65.2 µM in the assay on IGROV1 ovarian; above 100 µM in the assay on RPMI-8226 leukemia; 15.7 µM with A498 renal; 21.8 µM in the assay with HCT-116 colon; 23.3 µM in the assay on 786-0 renal. Further, the TGI in the assay with SNB-19 CNS worked out at 29.8 µM.

Turning to `COc1cc2ccnc(-c3n[nH]c4cc(OC)c(OC)cc34)c2cc1OC`, the TGI with SK-MEL-28 melanoma is above 100 µM; with IGROV1 ovarian it was above 100 µM; in the assay on RPMI-8226 leukemia, above 100 µM; in the assay on A498 renal, above 100 µM; in the assay on HCT-116 colon it was above 100 µM; in the assay on NCI-H522 lung it was 69.7 µM. For the same compound, the TGI with 786-0 renal and with SNB-19 CNS was above 100 µM throughout.

As for `CCSc1nnc(-c2ccc3ccccc3c2O)n1-c1ccccc1`, the GI50 with SK-MEL-28 melanoma is above 100 µM; in the assay on IGROV1 ovarian, 7.59 µM; in the assay with NCI-H522 lung, 4.27 µM; in the assay on MDA-MB-231 breast, above 100 µM; with 786-0 renal, above 100 µM. Moreover, the TGI in the assay on SK-MEL-28 melanoma, in the assay on IGROV1 ovarian, in the assay with NCI-H522 lung, in the assay with MDA-MB-231 breast and in the assay on 786-0 renal was above 100 µM in each case.

Turning to `CCCCCCCCCCCc1cc(=O)c2c(O)cccc2o1`, the TGI with SK-MEL-28 melanoma, in the assay on IGROV1 ovarian, in the assay with RPMI-8226 leukemia, with HCT-116 colon, in the assay with NCI-H522 lung and in the assay on 786-0 renal was above 100 µM throughout. In the assay on SNB-19 CNS, this compound displayed a TGI above 100 µM.

As for `CC(=O)Nc1ccc(S(=O)(=O)N/N=C(\C)CN2C(=O)c3ccccc3C2=O)cc1`, the TGI in the assay on IGROV1 ovarian, with RPMI-8226 leukemia, in the assay on A498 renal, with HCT-116 colon, with NCI-H522 lung and in the assay on 786-0 renal was above 100 µM each time. In the assay with SNB-19 CNS, the TGI is above 100 µM.

With `CC(C)CCCC(C)[C@H]1CCC2C3CC=C4C[C@@H](OC(=O)CC(CC(=O)[O-])C(=O)[O-])CC[C@]4(C)C3CC[C@@]21C.N.N.[Pt+4]` (stereo partly drawn), the GI50 in the assay on SK-MEL-28 melanoma was above 100 µM; in the assay with IGROV1 ovarian, above 100 µM; with RPMI-8226 leukemia it was above 100 µM; with A498 renal it was above 100 µM; with HCT-116 colon it was above 100000 nM; in the assay on 786-0 renal it was above 100 µM. In the assay with SNB-19 CNS, the GI50 was above 100 µM. The TGI with SK-MEL-28 melanoma, in the assay with IGROV1 ovarian, with RPMI-8226 leukemia, in the assay with A498 renal, in the assay with HCT-116 colon and in the assay with 786-0 renal was above 100 µM in each case. Further, the TGI in the assay with SNB-19 CNS is above 100 µM.

Consider `O=C(CC(=O)c1cccc2ccccc12)C(=O)Nc1nccs1`, for which the TGI with SK-MEL-28 melanoma, in the assay with IGROV1 ovarian, in the assay with RPMI-8226 leukemia, with A498 renal, in the assay on HCT-116 colon and in the assay on NCI-H522 lung was above 100 µM throughout. Besides, the TGI in the assay on 786-0 renal was above 100 µM.

Consider `CC/C(=N/O)C(C)C(=O)CCC(=O)Nc1ccc(Cl)cc1` (stereo not drawn), for which the TGI in the assay with SK-MEL-28 melanoma, with IGROV1 ovarian, in the assay with RPMI-8226 leukemia, in the assay with A498 renal, in the assay on HCT-116 colon and in the assay with 786-0 renal was above 100 µM throughout. Besides, the TGI in the assay with SNB-19 CNS is above 100 µM.

Take `OCC(O)C(OC1OC(CO)C(O)C(O)C1O)c1nn(-c2ccc(Cl)cc2)c2nc3cc(Cl)c(Cl)cc3nc12` (stereo not drawn): the TGI in the assay on SK-MEL-28 melanoma, in the assay on RPMI-8226 leukemia, with A498 renal, in the assay with HCT-116 colon, with NCI-H522 lung and with 786-0 renal was above 100 µM throughout. In the assay on SNB-19 CNS, this compound gave a TGI above 100 µM.

Consider `NC(=S)N/N=C1/C(=O)N(c2ccccc2)C(=O)C1C(=O)Nc1ccccc1` (stereo not drawn), for which the TGI with SK-MEL-28 melanoma, in the assay on IGROV1 ovarian, with A498 renal, with HCT-116 colon, in the assay with NCI-H522 lung and in the assay with 786-0 renal was above 100 µM each time. Also, the TGI in the assay with SNB-19 CNS is above 100 µM.

In the case of `Cc1ccc(Nn2c(SCC(=O)Nc3nc(-c4ccccc4)cs3)nc(C)c2C)cc1`, the GI50 in the assay with IGROV1 ovarian is 4.59 µM; with A498 renal, 17.4 µM; in the assay on HCT-116 colon, 2820 nM; in the assay with NCI-H522 lung it was 2.97 µM; with MDA-MB-231 breast, 3.34 µM; with 786-0 renal it was 4.41 µM. Moreover, in the assay with SNB-19 CNS, the GI50 was 7.5 µM. For the same compound, the TGI in the assay with IGROV1 ovarian is above 100 µM; with A498 renal it was above 100 µM; in the assay with HCT-116 colon, 26.5 µM; with NCI-H522 lung it was 86.8 µM; in the assay on MDA-MB-231 breast, above 100 µM; with 786-0 renal, above 100 µM. This compound also returned a TGI in the assay on SNB-19 CNS above 100 µM.

Consider `CC(=O)NC(CCCCN(Cc1ccccc1)C(=O)N(C)N=O)C(=O)NCc1ccccc1` (stereo not drawn), for which the TGI in the assay with SK-MEL-28 melanoma, with IGROV1 ovarian, with RPMI-8226 leukemia, in the assay on A498 renal, with HCT-116 colon and in the assay with NCI-H522 lung was above 100 µM each time. Also, the TGI with 786-0 renal and with SNB-19 CNS was above 100 µM each time.

As for `[N-]=[N+]=Nc1nnc(CCCCc2nnc(N=[N+]=[N-])o2)o1`, the TGI in the assay on SK-MEL-28 melanoma, with A498 renal, in the assay on HCT-116 colon, in the assay on NCI-H522 lung, with 786-0 renal and in the assay with SNB-19 CNS was above 100 µM each time.

`COc1ccc(C2C(C(=O)O)=C(CO)Oc3cc4c(cc32)OCO4)c(OC)c1` (stereo not drawn): the TGI with SK-MEL-28 melanoma, with IGROV1 ovarian, in the assay with RPMI-8226 leukemia, in the assay on HCT-116 colon, in the assay with 786-0 renal and in the assay on SNB-19 CNS was above 100 µM each time.
